The data set deals with rodent lifetime carcinogenesis bioassay, tumor incidence TD50. Put plainly: carcinogenic potency in animals, long-term in vivo studies, CPDB compilation (AID 1745844).

The source made the active and inactive calls. How the calls were made is not given here.

With `C=CCN(CC=C)N=O`, the TD50 (in general, the 50% point of the dose-response relation for the toxic effect studied) is 1.54 mg/kg/day (hamster, strain Syrian Golden, both sexes, by gavage, site: any site (literature study), lesion: several types, types named in the paper, dosed 53 weeks, study length 59 weeks); 3.69 mg/kg/day (hamster, strain Syrian Golden, both sexes, by gavage, site: larynx, lesion: papillary polyp, dosed 53 weeks, study length 59 weeks); 743 mg/kg/day (hamster, strain Syrian Golden, both sexes, by gavage, site: liver, lesion: cholangioma, dosed 53 weeks, study length 59 weeks); 2.86 mg/kg/day (hamster, strain Syrian Golden, both sexes, by gavage, site: nasal cavity, posterior region, lesion: adenocarcinoma, dosed 53 weeks, study length 59 weeks); 25.3 mg/kg/day (hamster, strain Syrian Golden, both sexes, by gavage, site: pharynx, lesion: papilloma, dosed 53 weeks, study length 59 weeks); 2.84 mg/kg/day (hamster, strain Syrian Golden, both sexes, by gavage, site: trachea, lesion: papillary polyp, dosed 53 weeks, study length 59 weeks). Besides, the TD50 is 33.6 mg/kg/day (rat, strain BD IX, females, in drinking water, site: nasal and paranasal cavity, lesion: adenocarcinoma, dosed 104 weeks, study length 104 weeks); 32.1 mg/kg/day (rat, strain BD IX, females, in drinking water, site: nasal and paranasal cavity, lesion: several types, types named in the paper, dosed 104 weeks, study length 104 weeks); 46.9 mg/kg/day (rat, strain BD IX, males, in drinking water, site: nasal and paranasal cavity, lesion: adenocarcinoma, dosed 104 weeks, study length 104 weeks); 36 mg/kg/day (rat, strain BD IX, males, in drinking water, site: nasal and paranasal cavity, lesion: several types, types named in the paper, dosed 104 weeks, study length 104 weeks).
Regarding `NC(N)=Nc1nc(CSCCNc2nsnc2N)cs1`, the TD50 was 6270 mg/kg/day (rat, strain Charles River CD (Sprague-Dawley), females, by gavage, site: gastric mucosa, lesion: carcinoid tumor, malignant, dosed 105 weeks, study length 105 weeks) and 4140 mg/kg/day (rat, strain Charles River CD (Sprague-Dawley), males, by gavage, site: gastric mucosa, lesion: carcinoid tumor, malignant, dosed 105 weeks, study length 105 weeks).
As for `c1ccc2ccccc2c1`, the TD50 reads like this: (mouse, strain B6C3F1, females, inhaled, site: any site (literature study), lesion: several types, types named in the paper, dosed 103 weeks, study length 104 weeks) 128 mg/kg/day; (mouse, strain B6C3F1, females, inhaled, site: lung, lesion: alveolar/bronchiolar adenoma + alveolar/bronchiolar carcinoma, dosed 103 weeks, study length 104 weeks) 163 mg/kg/day; (mouse, strain B6C3F1, females, inhaled, site: lung, lesion: alveolar/bronchiolar adenoma, dosed 103 weeks, study length 104 weeks) 171 mg/kg/day; (mouse, strain B6C3F1, females, inhaled, site: lung, lesion: alveolar/bronchiolar carcinoma, dosed 103 weeks, study length 104 weeks) 4020 mg/kg/day; (rat, strain Fischer 344, females, inhaled, site: nasal cavity, olfactory epithelium + nasal cavity, respiratory epithelium, lesion: neuroblastoma + adenoma, dosed 105 weeks, study length 105 weeks) 37.3 mg/kg/day; (rat, strain Fischer 344, females, inhaled, site: nasal cavity, olfactory epithelium, lesion: neuroblastoma, dosed 105 weeks, study length 105 weeks) 52.9 mg/kg/day. Further, the TD50 by setting is: (rat, strain Fischer 344, females, inhaled, site: nasal cavity, respiratory epithelium, lesion: adenoma, dosed 105 weeks, study length 105 weeks) 121 mg/kg/day; (rat, strain Fischer 344, males, inhaled, site: any site (literature study), lesion: several types, types named in the paper, dosed 104 weeks, study length 104 weeks) 27.5 mg/kg/day; (rat, strain Fischer 344, males, inhaled, site: liver, lesion: hepatocellular adenoma + hepatoblastoma + hepatocellular carcinoma, dosed 104 weeks, study length 104 weeks) 171 mg/kg/day; (rat, strain Fischer 344, males, inhaled, site: mammary gland, lesion: fibroadenoma, dosed 104 weeks, study length 104 weeks) 133 mg/kg/day; (rat, strain Fischer 344, males, inhaled, site: nasal cavity, olfactory epithelium + nasal cavity, respiratory epithelium, lesion: neuroblastoma + adenoma, dosed 104 weeks, study length 104 weeks) 12.3 mg/kg/day; (rat, strain Fischer 344, males, inhaled, site: nasal cavity, olfactory epithelium, lesion: neuroblastoma, dosed 104 weeks, study length 104 weeks) 88 mg/kg/day. Further, the TD50 (rat, strain Fischer 344, males, inhaled, site: nasal cavity, respiratory epithelium, lesion: adenoma, dosed 104 weeks, study length 104 weeks) is 14 mg/kg/day. For the same compound, the carcinogen call (mouse, strain B6C3F1, males, inhaled, site: any site (literature study), lesion: several types, types named in the paper, dosed 103 weeks, study length 104 weeks) was “negative (inactive)”.
Consider `CCNC(=O)N(CCO)N=O`, for which the TD50 by setting is: (rat, strain Fischer 344, females, in drinking water, site: mammary tissue, wider than the gland, lesion: carcinoma, dosed 30 weeks, study length 104 weeks) 0.501 mg/kg/day; (rat, strain Fischer 344, males, in drinking water, site: liver, lesion: one or several types, types not named, dosed 30 weeks, study length 104 weeks) 1.09 mg/kg/day; (rat, strain Fischer 344, males, in drinking water, site: lung, lesion: one or several types, types not named, dosed 30 weeks, study length 104 weeks) 0.446 mg/kg/day; (rat, strain Fischer 344, males, in drinking water, site: nervous system, lesion: one or several types, types not named, dosed 30 weeks, study length 104 weeks) 0.754 mg/kg/day; (rat, strain Fischer 344, males, in drinking water, site: skin, lesion: one or several types, types not named, dosed 30 weeks, study length 104 weeks) 0.641 mg/kg/day; (rat, strain Fischer 344, males, in drinking water, site: tunica vaginalis, lesion: mesothelioma, dosed 30 weeks, study length 104 weeks) 0.576 mg/kg/day.
As for `Nc1ccc2nc3ccccn3c2n1`, the TD50 (mouse, strain CDF1, females, in feed, site: blood vessels, lesion: hemangioendothelial sarcoma, dosed 82 weeks, study length 82 weeks) was determined as 43 mg/kg/day; the TD50 (mouse, strain CDF1, females, in feed, site: blood vessels, lesion: several types, types named in the paper, dosed 82 weeks, study length 82 weeks) was 39.9 mg/kg/day; the TD50 (mouse, strain CDF1, females, in feed, site: liver, lesion: hepatocellular adenoma, dosed 82 weeks, study length 82 weeks) was determined as 170 mg/kg/day; the TD50 (mouse, strain CDF1, females, in feed, site: liver, lesion: hepatocellular carcinoma, dosed 82 weeks, study length 82 weeks) turned out to be 20 mg/kg/day; the TD50 (mouse, strain CDF1, females, in feed, site: liver, lesion: several types, types named in the paper, dosed 82 weeks, study length 82 weeks) was 12 mg/kg/day; the TD50 (mouse, strain CDF1, females, in feed, site: lung, lesion: adenoma, dosed 82 weeks, study length 82 weeks) stood at 1090 mg/kg/day. In addition, the TD50 is 27.3 mg/kg/day (mouse, strain CDF1, males, in feed, site: blood vessels, lesion: hemangioendothelial sarcoma, dosed 84 weeks, study length 84 weeks); 23.9 mg/kg/day (mouse, strain CDF1, males, in feed, site: blood vessels, lesion: several types, types named in the paper, dosed 84 weeks, study length 84 weeks); 201 mg/kg/day (mouse, strain CDF1, males, in feed, site: liver, lesion: hepatocellular adenoma, dosed 84 weeks, study length 84 weeks); 255 mg/kg/day (mouse, strain CDF1, males, in feed, site: liver, lesion: hepatocellular carcinoma, dosed 84 weeks, study length 84 weeks); 93.2 mg/kg/day (mouse, strain CDF1, males, in feed, site: liver, lesion: several types, types named in the paper, dosed 84 weeks, study length 84 weeks); 483 mg/kg/day (mouse, strain CDF1, males, in feed, site: lung, lesion: adenoma, dosed 84 weeks, study length 84 weeks). Besides, the TD50 reads like this: (rat, strain F344/DuCrj, females, in feed, site: Zymbal's gland, lesion: squamous-cell carcinoma, dosed 104 weeks, study length 104 weeks) 94 mg/kg/day; (rat, strain F344/DuCrj, females, in feed, site: clitoral gland, lesion: one or several types, types not named, dosed 104 weeks, study length 104 weeks) 56.4 mg/kg/day; (rat, strain F344/DuCrj, females, in feed, site: colon, lesion: adenocarcinoma, dosed 104 weeks, study length 104 weeks) 351 mg/kg/day; (rat, strain F344/DuCrj, females, in feed, site: colon, lesion: adenoma, dosed 104 weeks, study length 104 weeks) 111 mg/kg/day; (rat, strain F344/DuCrj, females, in feed, site: colon, lesion: several types, types named in the paper, dosed 104 weeks, study length 104 weeks) 81.1 mg/kg/day; (rat, strain F344/DuCrj, females, in feed, site: liver, lesion: several types, types named in the paper, dosed 104 weeks, study length 104 weeks) 351 mg/kg/day. Besides, the TD50 is 135 mg/kg/day (rat, strain F344/DuCrj, females, in feed, site: small intestine, lesion: adenocarcinoma, dosed 104 weeks, study length 104 weeks); 171 mg/kg/day (rat, strain F344/DuCrj, females, in feed, site: small intestine, lesion: adenoma, dosed 104 weeks, study length 104 weeks); 711 mg/kg/day (rat, strain F344/DuCrj, females, in feed, site: small intestine, lesion: mucinous carcinoma, dosed 104 weeks, study length 104 weeks); 81.1 mg/kg/day (rat, strain F344/DuCrj, females, in feed, site: small intestine, lesion: several types, types named in the paper, dosed 104 weeks, study length 104 weeks); 569 mg/kg/day (rat, strain F344/DuCrj, males, in feed, site: Zymbal's gland, lesion: squamous-cell carcinoma, dosed 104 weeks, study length 104 weeks); 281 mg/kg/day (rat, strain F344/DuCrj, males, in feed, site: brain, lesion: astrocytoma, dosed 104 weeks, study length 104 weeks). Further, the TD50 runs as follows: (rat, strain F344/DuCrj, males, in feed, site: colon, lesion: adenocarcinoma, dosed 104 weeks, study length 104 weeks) 185 mg/kg/day; (rat, strain F344/DuCrj, males, in feed, site: colon, lesion: adenoma, dosed 104 weeks, study length 104 weeks) 185 mg/kg/day; (rat, strain F344/DuCrj, males, in feed, site: colon, lesion: several types, types named in the paper, dosed 104 weeks, study length 104 weeks) 88.9 mg/kg/day; (rat, strain F344/DuCrj, males, in feed, site: liver, lesion: several types, types named in the paper, dosed 104 weeks, study length 104 weeks) 52.1 mg/kg/day; (rat, strain F344/DuCrj, males, in feed, site: small intestine, lesion: adenocarcinoma, dosed 104 weeks, study length 104 weeks) 45.1 mg/kg/day; (rat, strain F344/DuCrj, males, in feed, site: small intestine, lesion: adenoma, dosed 104 weeks, study length 104 weeks) 137 mg/kg/day. Further, the TD50 reads like this: (rat, strain F344/DuCrj, males, in feed, site: small intestine, lesion: mucinous carcinoma, dosed 104 weeks, study length 104 weeks) 281 mg/kg/day; (rat, strain F344/DuCrj, males, in feed, site: small intestine, lesion: several types, types named in the paper, dosed 104 weeks, study length 104 weeks) 33.8 mg/kg/day.

(Values after PubChem BioAssay AID1745844 (Carcinogenic Potency Database (CPDB), 2022).)
